In the supplement of paper PMC8671470:

What was measured:
Assay in all cases: cell viability (% survival relative to DMSO control); higher = less cytotoxic
Conditions in all cases: 72 h
[1] = test system: myeloid leukemia patient primary cells Pat.11
In short: (§1)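 Thawed, Ficoll-purified mononuclear cells from AML or CML patients in RPMI 1640 with 10% FBS were seeded at 10,000 cells/well on 384-well plates pre-printed with 70 compounds at five tenfold concentrations, 1–10,000 nM, in duplicate, for 72 h. Viability was read by CellTiter-Glo and normalised to DMSO and 10 μM proteasome-inhibitor wells. Where given, area under the curve came from four-parameter log-logistic fits (drc, PharmacoGx R packages).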

[2] = test system: myeloid leukemia patient primary cells Pat.10
In short: as §1

[3] = test system: myeloid leukemia patient primary cells Pat.14
In short: as §1

[4] = test system: myeloid leukemia patient primary cells Pat.9
In short: as §1

Compound	cell viability ([1]; 1 nM)	cell viability ([1]; 10 nM)	cell viability ([1]; 100 nM)	cell viability ([1]; 1000 nM)	cell viability ([1]; 10000 nM)	cell viability ([2]; 1 nM)	cell viability ([2]; 10 nM)	cell viability ([2]; 100 nM)	cell viability ([2]; 1000 nM)	cell viability ([2]; 10000 nM)	cell viability ([3]; 1 nM)	cell viability ([3]; 10 nM)	cell viability ([3]; 100 nM)	cell viability ([3]; 1000 nM)	cell viability ([3]; 10000 nM)	cell viability ([4]; 1 nM)	cell viability ([4]; 10 nM)	cell viability ([4]; 100 nM)	cell viability ([4]; 1000 nM)	cell viability ([4]; 10000 nM)
Sc1ncnc2nc[nH]c12 [6-mercaptopurine]	> 100%	98.2%	97.6%	97.9%	98.1%	59%	63.4%	70.1%	72.4%	56.6%	92.6%	> 100%	74.8%	97.9%	88%	62.5%	68.1%	48.8%	79.9%	30.1%
Cc1noc2c1-c1ccccc1C(c1ccc(Cl)cc1)=N[C@H]2CC(N)=O [CPI-0610]	> 100%	93%	93.6%	54.3%	51.8%	68.5%	91.9%	29.6%	27.8%	39.2%	> 100%	84.9%	86.4%	60.3%	60.7%	83%	24.2%	88.3%	6.03%	11.5%
Nc1ccn([C@@H]2O[C@H](CO)[C@@H](O)[C@@H]2O)c(=O)n1 [Cytarabine]	95.7%	93.6%	> 100%	89.3%	41.1%	89.9%	45.1%	67%	54.1%	13.9%	85.1%	65.1%	78.1%	62.9%	15.8%	89.7%	18.1%	51.2%	15.5%	2.09%
CCN(CC)CCN(Cc1ccc(-c2ccc(C(F)(F)F)cc2)cc1)C(=O)Cn1c(SCc2ccc(F)cc2)nc(=O)c2c1CCC2 [Darapladib]	87.2%	98.3%	85.3%	88.2%	0.357%	66.6%	77.8%	12.3%	93.5%	4.94%	65.7%	92.2%	52.5%	52.1%	2.36%	37.7%	60.6%	25.1%	2.92%	< 0%
CC12CCC(O)CC1CCC1C2CCC2(C)C(C3=CC(=O)OC3)CCC12O (stereo not given) [Digitoxigenin]	99.8%	94.1%	94.8%	31.9%	9.33%	71.9%	52.2%	> 100%	96.8%	> 100%	95%	66.5%	78.4%	22.2%	18.3%	79%	54.7%	13%	5.35%	4.43%
C[C@H]1O[C@@H](O[C@H]2[C@@H](O)C[C@H](O[C@H]3[C@@H](O)C[C@H](O[C@H]4CC[C@@]5(C)[C@H](CC[C@@H]6[C@@H]5C[C@@H](O)[C@]5(C)[C@@H](C7=CC(=O)OC7)CC[C@]65O)C4)O[C@@H]3C)O[C@@H]2C)C[C@H](O)[C@@H]1O [Digoxin]	> 100%	97.6%	48.8%	12.4%	7.54%	91.9%	57.7%	98.8%	91.5%	> 100%	82.1%	90.3%	69.7%	18.9%	13.5%	76%	65.2%	17.7%	2.92%	2.42%
Clc1ccc(COC(Cn2ccnc2)c2ccc(Cl)cc2Cl)cc1 (stereo not given) [Econazole]	89.9%	92.9%	99.9%	88.6%	73.3%	70.3%	85.8%	73.5%	34.5%	< 0%	64.1%	90.1%	82.3%	76.3%	0.228%	55.9%	80.5%	43.2%	25.8%	3.7%
C[C@]12O[C@H](C[C@]1(O)CO)n1c3ccccc3c3c4c(c5c6ccccc6n2c5c31)CNC4=O [Lestaurtinib]	96.4%	74.7%	41.8%	56.9%	1.92%	64.5%	34.5%	45.6%	73.9%	9.05%	80.7%	43.5%	77.9%	40.6%	4.31%	56.2%	18.6%	19.5%	5.6%	< 0%
CC(Cc1ccc(O)c(O)c1)C(C)Cc1ccc(O)c(O)c1 (stereo not given) [Masoprocol]	94.1%	> 100%	98.8%	89.9%	80%	56.6%	47.4%	89.9%	42.2%	> 100%	> 100%	85.7%	96.7%	55.8%	68.1%	75.1%	87.1%	97.4%	9.61%	83.4%
COc1c(C)c2c(c(O)c1C/C=C(\C)CCC(=O)O)C(=O)OC2 [Mycophenolic acid]	88.3%	> 100%	91%	> 100%	78.1%	49.6%	77.5%	79.2%	69.8%	53.1%	75.3%	83.7%	65.6%	95.5%	93.4%	28%	63.2%	52%	50.4%	75%
CCOC(=O)N1c2ccc(C(F)(F)F)cc2[C@@H](N(Cc2cc(C(F)(F)F)cc(C(F)(F)F)c2)C(=O)OC)C[C@H]1CC [Torcetrapib]	96.7%	85.1%	99.1%	> 100%	97.5%	49.2%	62.1%	78.5%	44.5%	38.2%	84.7%	51%	> 100%	78.3%	41.7%	45.1%	28.6%	68.9%	48.8%	5.45%
